Source: PubChem BioAssay (NCI)
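48-hour exposure; five concentrations; linearly interpolated endpoints. GI50 = concentration required for 50% inhibition of growth. TGI marks complete inhibition of growth.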

Assays:
Assay in all cases: NCI anticancer screen, dose series, 48 h
CAKI-1 renal = system: CAKI-1 renal
OVCAR-8 ovarian = system: OVCAR-8 ovarian
T-47D breast = system: T-47D breast
SR leukemia = system: SR leukemia
HOP-62 NSCLC = system: HOP-62 NSCLC
PC-3 prostate = system: PC-3 prostate
HCT-116 colon = system: HCT-116 colon
RPMI-8226 leukemia = system: RPMI-8226 leukemia
CCRF-CEM leukemia = system: CCRF-CEM leukemia
DU-145 prostate = system: DU-145 prostate
MDA-MB-231 breast = system: MDA-MB-231 breast
MOLT-4 leukemia = system: MOLT-4 leukemia
MCF7 breast = system: MCF7 breast
HOP-92 NSCLC = system: HOP-92 NSCLC
SF-539 CNS = system: SF-539 CNS
NCI/ADR-RES ovarian = system: NCI/ADR-RES ovarian
SN12C renal = system: SN12C renal
NCI-H522 lung = system: NCI-H522 lung
UACC-257 melanoma = system: UACC-257 melanoma
HS 578T breast = system: HS 578T breast
LOX IMVI melanoma = system: LOX IMVI melanoma
KM12 colon = system: KM12 colon
OVCAR-4 ovarian = system: OVCAR-4 ovarian
EKVX NSCLC = system: EKVX NSCLC
SK-MEL-5 melanoma = system: SK-MEL-5 melanoma
COLO 205 colon = system: COLO 205 colon
SK-MEL-2 melanoma = system: SK-MEL-2 melanoma
TK-10 renal = system: TK-10 renal
OVCAR-3 ovarian = system: OVCAR-3 ovarian
UACC-62 melanoma = system: UACC-62 melanoma
SF-268 CNS = system: SF-268 CNS
RXF 393 renal = system: RXF 393 renal
HT29 colon = system: HT29 colon
U251 CNS = system: U251 CNS
OVCAR-5 ovarian = system: OVCAR-5 ovarian
NCI-H23 lung = system: NCI-H23 lung
SF-295 CNS = system: SF-295 CNS
UO-31 renal = system: UO-31 renal
M14 melanoma = system: M14 melanoma
A549 NSCLC = system: A549 NSCLC
SK-MEL-28 melanoma = system: SK-MEL-28 melanoma
HCT-15 colon = system: HCT-15 colon
SW-620 colon = system: SW-620 colon
MALME-3M melanoma = system: MALME-3M melanoma
MDA-MB-435 = system: MDA-MB-435
A498 renal = system: A498 renal
HCC-2998 colon = system: HCC-2998 colon
786-0 renal = system: 786-0 renal
BT-549 breast = system: BT-549 breast
SNB-19 CNS = system: SNB-19 CNS
NCI-H226 lung = system: NCI-H226 lung
HL-60(TB) leukemia = system: HL-60(TB) leukemia
ACHN renal = system: ACHN renal
SK-OV-3 ovarian = system: SK-OV-3 ovarian

**Q.** For COc1cc(/C=C2\CCCC3=C2N=C2SC(C)=CN2C3c2cc(OC)c(OC)c(OC)c2)cc(OC)c1OC (stereo not drawn), which GI50 (CAKI-1 renal) is on record?
**A.** Its GI50 is 2550 nM.

**Q.** What about the TGI (CAKI-1 renal) of the same molecule?
**A.** The TGI was greater than 100000 nM.

**Q.** What about the GI50 (OVCAR-8 ovarian) of the same molecule?
**A.** The GI50 was 385 nM.

**Q.** What about the TGI (OVCAR-8 ovarian) of the same molecule?
**A.** Its TGI is 3090 nM.

**Q.** What about the GI50 (T-47D breast) of the same molecule?
**A.** The GI50 was 3160 nM.

**Q.** And the TGI (T-47D breast)?
**A.** Its TGI is greater than 100000 nM.

**Q.** What about the GI50 (SR leukemia) of the same molecule?
**A.** The GI50 was 399 nM.

**Q.** What about the TGI (SR leukemia) of the same molecule?
**A.** The TGI was 2010 nM.

**Q.** And the GI50 (HOP-62 NSCLC)?
**A.** The GI50 was 1890 nM.

**Q.** What about the TGI (HOP-62 NSCLC) of the same molecule?
**A.** Its TGI is greater than 100000 nM.

**Q.** What about the GI50 (PC-3 prostate) of the same molecule?
**A.** The GI50 was 2190 nM.

**Q.** What about the TGI (PC-3 prostate) of the same molecule?
**A.** The TGI was greater than 100000 nM.

**Q.** What about the GI50 (HCT-116 colon) of the same molecule?
**A.** The GI50 was 692 nM.

**Q.** What about the TGI (HCT-116 colon) of the same molecule?
**A.** The TGI was 2010 nM.

**Q.** And the GI50 (RPMI-8226 leukemia)?
**A.** Its GI50 is 391 nM.

**Q.** What about the TGI (RPMI-8226 leukemia) of the same molecule?
**A.** The TGI was 2110 nM.

**Q.** What about the GI50 (CCRF-CEM leukemia) of the same molecule?
**A.** Its GI50 is 615 nM.

**Q.** And the TGI (CCRF-CEM leukemia)?
**A.** Its TGI is 4140 nM.

**Q.** And the GI50 (DU-145 prostate)?
**A.** The GI50 was 2760 nM.

**Q.** What about the TGI (DU-145 prostate) of the same molecule?
**A.** The TGI was greater than 100000 nM.

**Q.** And the GI50 (MDA-MB-231 breast)?
**A.** Its GI50 is 2880 nM.

**Q.** And the TGI (MDA-MB-231 breast)?
**A.** Its TGI is greater than 100000 nM.

**Q.** What about the GI50 (MOLT-4 leukemia) of the same molecule?
**A.** The GI50 was 1770 nM.

**Q.** And the TGI (MOLT-4 leukemia)?
**A.** The TGI was 6430 nM.

**Q.** What about the GI50 (MCF7 breast) of the same molecule?
**A.** The GI50 was 2980 nM.

**Q.** And the TGI (MCF7 breast)?
**A.** Its TGI is greater than 100000 nM.

**Q.** What about the GI50 (HOP-92 NSCLC) of the same molecule?
**A.** Its GI50 is 1460 nM.

**Q.** What about the TGI (HOP-92 NSCLC) of the same molecule?
**A.** Its TGI is 4270 nM.

**Q.** What about the GI50 (SF-539 CNS) of the same molecule?
**A.** The GI50 was 3090 nM.

**Q.** And the TGI (SF-539 CNS)?
**A.** The TGI was greater than 100000 nM.

**Q.** What about the GI50 (NCI/ADR-RES ovarian) of the same molecule?
**A.** The GI50 was 334 nM.

**Q.** What about the TGI (NCI/ADR-RES ovarian) of the same molecule?
**A.** The TGI was greater than 100000 nM.

**Q.** And the GI50 (SN12C renal)?
**A.** The GI50 was 2440 nM.

**Q.** What about the TGI (SN12C renal) of the same molecule?
**A.** The TGI was greater than 100000 nM.

**Q.** Which results are given for CCOc1ccc2c(c1)C(=O)c1c-2n(CCCN)c(=O)c2cc([N+](=O)[O-])ccc12?
**A.** GI50 (NCI-H522 lung): 13.4 nM; TGI (NCI-H522 lung): 1520 nM; GI50 (UACC-257 melanoma): 1190 nM; TGI (UACC-257 melanoma): 2440 nM; GI50 (HS 578T breast): 1930 nM; TGI (HS 578T breast): 4040 nM; GI50 (LOX IMVI melanoma): 14.4 nM; TGI (LOX IMVI melanoma): 1150 nM; GI50 (KM12 colon): 532 nM; TGI (KM12 colon): 2100 nM; GI50 (CAKI-1 renal): 11.2 nM; TGI (CAKI-1 renal): 1140 nM; GI50 (OVCAR-8 ovarian): 16.8 nM; TGI (OVCAR-8 ovarian): 147 nM; GI50 (OVCAR-4 ovarian): 527 nM; TGI (OVCAR-4 ovarian): 2180 nM; GI50 (EKVX NSCLC): 1190 nM; TGI (EKVX NSCLC): 2570 nM; GI50 (SK-MEL-5 melanoma): 77.1 nM; TGI (SK-MEL-5 melanoma): 417 nM; GI50 (COLO 205 colon): 361 nM; TGI (COLO 205 colon): 2110 nM; GI50 (SK-MEL-2 melanoma): 1530 nM; TGI (SK-MEL-2 melanoma): 3270 nM; GI50 (TK-10 renal): 1270 nM; TGI (TK-10 renal): 2780 nM; GI50 (SR leukemia): < 10 nM; TGI (SR leukemia): 2170 nM; GI50 (OVCAR-3 ovarian): 448 nM; TGI (OVCAR-3 ovarian): 1750 nM; GI50 (HOP-62 NSCLC): < 10.8 nM; TGI (HOP-62 NSCLC): 1220 nM; GI50 (UACC-62 melanoma): 76.8 nM; TGI (UACC-62 melanoma): 1820 nM; GI50 (SF-268 CNS): 11.5 nM; TGI (SF-268 CNS): 1060 nM; GI50 (PC-3 prostate): 297 nM; TGI (PC-3 prostate): 2140 nM; GI50 (HCT-116 colon): 63.8 nM; TGI (HCT-116 colon): 543 nM; GI50 (RPMI-8226 leukemia): 44.3 nM; TGI (RPMI-8226 leukemia): 302 nM; GI50 (CCRF-CEM leukemia): < 10 nM; TGI (CCRF-CEM leukemia): 20.8 nM; GI50 (RXF 393 renal): 499 nM; TGI (RXF 393 renal): 1960 nM; GI50 (HT29 colon): 126 nM; TGI (HT29 colon): 1120 nM; GI50 (U251 CNS): 10.3 nM; TGI (U251 CNS): 1220 nM; GI50 (OVCAR-5 ovarian): 324 nM; TGI (OVCAR-5 ovarian): 1820 nM; GI50 (NCI-H23 lung): 42.5 nM; TGI (NCI-H23 lung): 473 nM; GI50 (SF-295 CNS): 14.6 nM; TGI (SF-295 CNS): 1190 nM; GI50 (DU-145 prostate): < 10.7 nM; TGI (DU-145 prostate): 213 nM; GI50 (MDA-MB-231 breast): 1810 nM; TGI (MDA-MB-231 breast): 3430 nM; GI50 (UO-31 renal): < 10 nM; TGI (UO-31 renal): 205 nM; GI50 (M14 melanoma): 34.3 nM; TGI (M14 melanoma): 1190 nM; GI50 (A549 NSCLC): 137 nM; TGI (A549 NSCLC): 1130 nM; GI50 (MCF7 breast): < 10 nM; TGI (MCF7 breast): 271 nM; GI50 (SK-MEL-28 melanoma): 1370 nM; TGI (SK-MEL-28 melanoma): 2890 nM; GI50 (HCT-15 colon): 209 nM; TGI (HCT-15 colon): 1240 nM; GI50 (HOP-92 NSCLC): 96.9 nM; TGI (HOP-92 NSCLC): 1910 nM; GI50 (SW-620 colon): 51.6 nM; TGI (SW-620 colon): 1360 nM; GI50 (MALME-3M melanoma): 574 nM; TGI (MALME-3M melanoma): 2370 nM; GI50 (MDA-MB-435): 294 nM; TGI (MDA-MB-435): 1950 nM; GI50 (SF-539 CNS): 51.7 nM; TGI (SF-539 CNS): 209 nM; GI50 (A498 renal): 679 nM; TGI (A498 renal): 2060 nM; GI50 (HCC-2998 colon): 183 nM; TGI (HCC-2998 colon): 1400 nM; GI50 (786-0 renal): 29.1 nM; TGI (786-0 renal): 214 nM; GI50 (BT-549 breast): 473 nM; TGI (BT-549 breast): 1620 nM; GI50 (NCI/ADR-RES ovarian): 55.8 nM; TGI (NCI/ADR-RES ovarian): 1820 nM; GI50 (SNB-19 CNS): 34.6 nM; TGI (SNB-19 CNS): 1480 nM; GI50 (NCI-H226 lung): 1220 nM; TGI (NCI-H226 lung): 3260 nM; GI50 (SN12C renal): 66.7 nM; TGI (SN12C renal): 1930 nM; GI50 (HL-60(TB) leukemia): 314 nM; TGI (HL-60(TB) leukemia): 2400 nM; GI50 (ACHN renal): 10.1 nM; TGI (ACHN renal): 1170 nM

**Q.** Which TGI (SK-OV-3 ovarian) does the source give for CC(C)(C)[Si](C)(C)OCCC1CC2(S(=O)(=O)C3=CC=C=C=C3)ON1CC2S(=O)(=O)c1ccccc1 (stereo not drawn) here?
**A.** Its TGI is greater than 100000 nM.

**Q.** What about the TGI (U251 CNS) of the same molecule?
**A.** Its TGI is greater than 100000 nM.
